According to ChEMBL document CHEMBL3098005, “Structure activity relationships of fused bicyclic and urea derivatives of spirocyclic compounds as potent CCR1 antagonists” (Bioorg Med Chem Lett, 2014):

How the values were obtained:
Hepatocyte = assay: Metabolic stability in human hepatocytes measured per 10^6 cells; type: ADME, cell-based
[1] = Metabolic stability in human liver microsomes; type: ADME; details: read-out: Stability
[2] = target: T1, C-C chemokine receptor type 1 (Rattus norvegicus, UniProt A6I4C9); assay: Displacement of [125I]MIP-1alpha from rat CCR1
T1 sequence (A6I4C9 whole entry): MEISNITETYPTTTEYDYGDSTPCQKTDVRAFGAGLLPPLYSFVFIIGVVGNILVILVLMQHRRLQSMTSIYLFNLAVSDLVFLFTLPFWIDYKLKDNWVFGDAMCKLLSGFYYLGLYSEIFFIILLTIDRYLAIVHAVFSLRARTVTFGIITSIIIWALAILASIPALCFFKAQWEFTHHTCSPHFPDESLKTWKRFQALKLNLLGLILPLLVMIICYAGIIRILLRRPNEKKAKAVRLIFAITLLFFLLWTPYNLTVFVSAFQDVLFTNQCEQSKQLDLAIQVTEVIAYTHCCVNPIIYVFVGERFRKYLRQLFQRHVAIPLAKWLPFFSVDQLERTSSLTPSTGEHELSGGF

[3] = target: T2, C-C chemokine receptor type 1 (Homo sapiens, UniProt P32246); assay: Displacement of [125I]MIP-1alpha from human recombinant CCR1 expressed in HEK293 cell membranes after 1.5 hrs by microbeta counting analysis
T2 sequence (P32246 whole entry): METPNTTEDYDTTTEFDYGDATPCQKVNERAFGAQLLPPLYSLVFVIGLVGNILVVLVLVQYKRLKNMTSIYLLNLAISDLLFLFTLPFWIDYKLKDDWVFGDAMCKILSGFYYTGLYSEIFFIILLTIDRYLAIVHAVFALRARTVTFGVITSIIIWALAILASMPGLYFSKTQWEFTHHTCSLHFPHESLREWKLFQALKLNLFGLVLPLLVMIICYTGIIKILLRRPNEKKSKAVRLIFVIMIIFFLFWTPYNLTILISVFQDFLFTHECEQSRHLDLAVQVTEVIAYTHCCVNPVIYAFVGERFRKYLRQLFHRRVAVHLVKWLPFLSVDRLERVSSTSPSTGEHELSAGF

[4] = Permeability across human Caco2 cells; type: ADME, cell-based; details: Caco-2, read-out: permeability
[5] = target: Voltage-gated inwardly rectifying potassium channel KCNH2 (Homo sapiens, UniProt Q12809); assay: Inhibition of human ERG expressed in HEK cells after 3 hrs by ion flux electrophysiology
Sequence of Voltage-gated inwardly rectifying potassium channel KCNH2 (Q12809 whole entry): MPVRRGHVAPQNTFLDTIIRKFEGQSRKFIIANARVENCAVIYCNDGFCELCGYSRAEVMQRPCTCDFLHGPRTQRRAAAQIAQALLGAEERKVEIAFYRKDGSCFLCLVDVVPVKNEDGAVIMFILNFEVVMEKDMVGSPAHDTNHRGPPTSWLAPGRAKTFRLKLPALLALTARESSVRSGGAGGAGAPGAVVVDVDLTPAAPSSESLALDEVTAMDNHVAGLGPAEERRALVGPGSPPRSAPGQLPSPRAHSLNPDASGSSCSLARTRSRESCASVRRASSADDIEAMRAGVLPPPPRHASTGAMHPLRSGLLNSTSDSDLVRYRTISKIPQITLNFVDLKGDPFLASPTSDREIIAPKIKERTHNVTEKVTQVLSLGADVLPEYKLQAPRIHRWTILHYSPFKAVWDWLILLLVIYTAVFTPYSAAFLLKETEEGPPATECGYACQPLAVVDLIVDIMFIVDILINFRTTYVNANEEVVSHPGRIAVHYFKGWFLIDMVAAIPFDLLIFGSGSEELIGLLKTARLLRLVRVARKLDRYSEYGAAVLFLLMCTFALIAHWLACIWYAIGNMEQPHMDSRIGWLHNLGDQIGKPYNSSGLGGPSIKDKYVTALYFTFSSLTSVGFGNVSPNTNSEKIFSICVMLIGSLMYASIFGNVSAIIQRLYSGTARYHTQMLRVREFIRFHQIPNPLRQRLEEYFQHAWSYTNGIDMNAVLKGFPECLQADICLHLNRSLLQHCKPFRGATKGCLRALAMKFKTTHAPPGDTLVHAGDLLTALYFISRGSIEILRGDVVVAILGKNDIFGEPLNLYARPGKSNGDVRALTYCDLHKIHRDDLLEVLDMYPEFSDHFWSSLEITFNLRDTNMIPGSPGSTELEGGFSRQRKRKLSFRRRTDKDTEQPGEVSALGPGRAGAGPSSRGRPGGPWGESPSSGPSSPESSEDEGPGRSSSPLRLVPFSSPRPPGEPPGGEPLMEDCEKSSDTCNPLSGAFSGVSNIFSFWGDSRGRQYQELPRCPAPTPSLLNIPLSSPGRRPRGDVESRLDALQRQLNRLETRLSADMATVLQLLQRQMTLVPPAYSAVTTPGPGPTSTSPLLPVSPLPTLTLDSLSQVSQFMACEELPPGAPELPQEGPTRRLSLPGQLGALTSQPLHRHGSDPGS

Row | Stability (Hepatocyte) | microsomal CLint [1] | IC50 [2] | IC50 [3] | Papp [4] | IC50 ([2]; read-out: IC50) | Structure (SMILES) | IC50 [5]
1 | Unstable | 12.5 µL/min/mg | Not Active | 37 nM | – | – | O=c1ccc2cccc(OC[C@@H](O)CN3CCC4(CC3)Cc3cc(Cl)ccc3O4)c2[nH]1 | –
2 | < 3.8 µL/min | < 10 µL/min/mg | – | 3.2 nM | 0.5 ×10⁻⁶ cm/s | 1580 nM | NC(=O)Nc1ccc(O)cc1OC[C@@H](O)CN1CCC2(CC1)Cc1cc(Cl)ccc1O2 | > 8900 nM
3 | – | – | – | 560 nM | – | > 6000 nM | O=c1[nH]c(=O)c2cccc(OC[C@@H](O)CN3CCC4(CC3)Cc3cc(Cl)ccc3O4)c2[nH]1 | –
4 | 5.3 µL/min | 15.1 µL/min/mg | – | 0.63 nM | 0.93 ×10⁻⁶ cm/s | 101 nM | O=C(Nc1ccc(O)cc1OC[C@@H](O)CN1CCC2(CC1)Cc1cc(F)ccc1O2)NC1CC1 | 3800 nM
5 | 7.8 µL/min | 33.7 µL/min/mg | – | 7.1 nM | 11 ×10⁻⁶ cm/s | 1260 nM | O=C1COc2cccc(OC[C@@H](O)CN3CCC4(CC3)Cc3cc(Cl)ccc3O4)c2N1 | 600 nM
6 | – | 114 µL/min/mg | – | 1.8 nM | – | 50 nM | COc1ccc(NC(=O)NC2CC2)c(OC[C@@H](O)CN2CCC3(CC2)Cc2cc(Cl)ccc2O3)c1 | –
7 | – | < 10 µL/min/mg | Not Active | 79 nM | – | – | N[C@H](COc1cccc2c1NC(=O)CO2)CN1CCC2(CC1)Cc1cc(F)ccc1O2 | –
8 | – | 133 µL/min/mg | – | 2.2 nM | – | 90 nM | COc1ccc(NC(=O)NC2CC2)c(OC[C@@H](O)CN2CCC3(CC2)Cc2cc(F)ccc2O3)c1 | –
9 | – | > 200 µL/min/mg | – | 1.4 nM | 3.5 ×10⁻⁶ cm/s | – | O=C(Nc1ccccc1OC[C@@H](O)CN1CCC2(CC1)Cc1cc(Cl)ccc1O2)N1CCCC1 | –
10 | – | 71.2 µL/min/mg | – | 4.5 nM | – | 447 nM | CNC(=O)Nc1ccc(OC)cc1OC[C@@H](O)CN1CCC2(CC1)Cc1cc(Cl)ccc1O2 | –
11 | 20.7 µL/min | < 11.4 µL/min/mg | – | 1.8 nM | – | 16 nM | O=C(Nc1cc(Cl)c(O)cc1OC[C@@H](O)CN1CCC2(CC1)Cc1cc(Cl)ccc1O2)NC1CC1 | 1000 nM
12 | – | – | Not Active | 1300 nM | – | – | Cc1nc2c(OC[C@@H](O)CN3CCC4(CC3)Cc3cc(Cl)ccc3O4)cccc2s1 | –
13 | – | 87.9 µL/min/mg | – | 13 nM | – | 1780 nM | CNC(=O)Nc1ccc(OC)cc1OC[C@@H](O)CN1CCC2(CC1)Cc1cc(F)ccc1O2 | –
14 | – | – | Not Active | 1300 nM | – | – | Nc1nc2c(OC[C@@H](O)CN3CCC4(CC3)Cc3cc(Cl)ccc3O4)cccc2s1 | –
15 | – | < 10 µL/min/mg | Not Active | 560 nM | – | – | N[C@H](COc1cccc2ccc(=O)[nH]c12)CN1CCC2(CC1)Cc1cc(F)ccc1O2 | 1200 nM
16 | 10.7 µL/min | < 10 µL/min/mg | – | 3.2 nM | – | – | CNC(=O)Nc1ccc(O)cc1OC[C@@H](O)CN1CCC2(CC1)Cc1cc(F)ccc1O2 | 13100 nM
17 | 6.4 µL/min | < 10 µL/min/mg | – | 0.89 nM | 2.67 ×10⁻⁶ cm/s | 50 nM | O=C(Nc1ccc(O)cc1OC[C@@H](O)CN1CCC2(CC1)Cc1cc(Cl)ccc1O2)NC1CC1 | –
18 | < 3 µL/min | 21.5 µL/min/mg | – | 6.7 nM | 14 ×10⁻⁶ cm/s | 2110 nM | NC(=O)Nc1ccccc1OC[C@@H](O)CN1CCC2(CC1)Cc1cc(Cl)ccc1O2 | 400 nM
19 | 5.7 µL/min | 17 µL/min/mg | – | 5.6 nM | 16 ×10⁻⁶ cm/s | 1620 nM | NC(=O)Nc1ccc(F)cc1OC[C@@H](O)CN1CCC2(CC1)Cc1cc(Cl)ccc1O2 | –
20 | – | 15 µL/min/mg | Not Active | 160 nM | – | – | Cc1cc2c(OC[C@@H](O)CN3CCC4(CC3)Cc3cc(Cl)ccc3O4)cccc2o1 | –
21 | 5.4 µL/min | < 10 µL/min/mg | – | 1.3 nM | 9 ×10⁻⁶ cm/s | 1760 nM | CNC(=O)Nc1ccc(O)cc1OC[C@@H](O)CN1CCC2(CC1)Cc1cc(Cl)ccc1O2 | 4600 nM
22 | Unstable | 65 µL/min/mg | Not Active | 32 nM | 16 ×10⁻⁶ cm/s | – | O=C1CCc2cccc(OC[C@@H](O)CN3CCC4(CC3)Cc3cc(Cl)ccc3O4)c2N1 | 500 nM
